# Conditions: rat, in vivo
# Experimental: The animals were then housed in metabolic cages and the feces were collected every three hours for a period of four days. At given time intervals, the rats were X-rayed, and the distribution of the microspheres in the stomach and in the intestine was followed. The collected feces were also X-rayed in order to monitor the total transit time of the microspheres through the GI tract.
# Tests were conducted in areas of distinct pH and physiology: the stomach (low pH range), and the intestine (basic environment, pH ranging from 5-7, in the proximal to distal regions, respectively), FIGS. 6a, 6b, and 6c.
substance,measurement,value
alginate,"retention time in the intestine, ranking",longest retention time from the group of hydrogels

# — patent US6365187B2, “Bioadhesive microspheres and their use as drug delivery and imaging systems” (priority 1992, dated 2002)
